System: colorectal carcinoma (HT-29 cells)
Experiment: Detection of colorectal carcinoma (HT-29 xenograft): scintigraphic imaging and uptake of radioactivity
Format: in vivo, female athymic nude mice
Description: Colorectal carcinoma was produced in female athymic nude mice by injecting subcutaneously 1×10^7 HT-29 cells (M.D. Anderson Hospital and Tumor Institute Houston, Tex.) per mouse in the hind limb. After 4 weeks, tumor bearing mice (2 per group) were injected intravenously with either sodium per-technetate (TcO4^-) or Tc-99m-glucarate (approximately350 uCi/mouse). […] After imaging at the last time point, animals were killed, tumors and organs were weighed and quantitated for the distribution of radioactivity.

[1] = 22 hours, approximately 350 uCi/mouse i.v.

[Na+].[O]=[Tc](=[O])(=[O])[O-] [TcO4^-, sodium pertechnetate]
% ID/gm at tumor site [1]: 0.29 ± 0.00 % ID/gm
tumor/blood [1]: 2.08 ± 0.21
tumor/muscle [1]: 12.08 ± 3.41
tumor visualization (images at 3, 5 and 24 hours): no tumor visualization was detected
uptake of radioactivity seen in scintigraphic images (images at 3, 5 and 24 hours after injection): nonspecific uptake of radioactivity at the thyroid and stomach
